Laboratory results reported in US20240239788A1, “SMALL MOLECULE INHIBITORS OF KRAS G12D MUTANT” (Merck Sharp & Dohme LLC, priority 2021, published 2024).
Like-named read-outs stand apart in the source and are kept apart here.

Legend:
[1] = biological target: KRAS G12D / Ras binding domain of C-RAF (Homo sapiens (Human), UniProt P01116, G12D); test: RAS:RAF-RBD binding assay (cRaf), TR-FRET; conditions: biotinylated KRAS G12D, GST-C-RAF RBD
Procedure: Compounds are added to KRAS and then after a 30-minute incubation time the RAF-RBD and detection antibodies are added. Small molecule inhibitors that block the interaction of c-RAF-RBD prevent generation of a TR-FRET signal.
Biotinylated KRAS G12D protein is diluted to 20 nM in assay buffer (20 mM HEPES pH 7.5, 150 mM sodium chloride, 10 mM magnesium chloride, and 0.01% Tween20).
Each test compound (10 mM stock in DMSO) is diluted in DMSO to make a 10-point, 3-fold dilution series in a 384-well low dead volume microplate (Labcyte, catalog #LP-0200).
Each well of the assay plate receives 5 μL of Biotinylated KRAS G12D assay solution and is incubated at room temperature for 30 minutes. Each well then receives 5 μL of 100 nM GST-C-RAF RBD protein and a 1:100 dilution of both anti-GST-d2 (Cisbio catalog #61GSTDLA) and Streptavidin-Tb cryptate (Cisbio catalog #610SATLA) in assay buffer and the plate is mixed and briefly centrifuged followed by a 60 minute incubation at room temperature.
The apparent effect as a function of compound concentration is fit to a four-parameter logistic equation.

[2] = biological target: KRAS protein containing G12D mutation (Homo sapiens (Human), UniProt P01116, G12D); test: SOS-catalyzed nucleotide exchange assay (GNE), TR-FRET; assay type: biochemical; conditions: biotinylated KRAS G12D, SOS and GTP, 60-minute incubation
KRAS protein containing G12D mutation, sequence (P01116 other isoform, or with tags, fused parts or gaps G12D (already in the parent)): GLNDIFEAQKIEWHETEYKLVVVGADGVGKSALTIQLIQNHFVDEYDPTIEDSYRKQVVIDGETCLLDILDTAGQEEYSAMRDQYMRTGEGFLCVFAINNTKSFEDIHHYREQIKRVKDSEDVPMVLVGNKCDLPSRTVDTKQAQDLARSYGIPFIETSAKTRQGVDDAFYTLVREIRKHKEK
Procedure: Compounds are added to this complex and then after a 60-minute incubation time the mixture is treated with SOS and unlabeled GTP. Small molecule inhibitors stabilize the Bodipy-GDP complex whereas the untreated protein rapidly exchanges Bodipy-GDP for unlabeled GTP resulting in reduced TR-FRET signal.
This solution is referred to as biotinylated KRAS G12D stock solution.

[3] = system: AsPC-1 cells containing homozygous KRAS-G12D activating mutation; test: Cellular phospho-ERK assay (Examples 1a-106); assay type: cell-based; conditions: AsPC-1 cells, 2 hours, ratio of p-Erk vs total Erk, read-out: IC50 (nM) pERK (Cell)
From the text: 5% CO? overnight. […] Assay plates were read on a EnVision Multimode Plate Reader (PerkinElmer) and the ratio of p-Erk vs total Erk in each well was used as the final readout.

KRAS G12D / Ras binding domain of C-RAF, sequence (P01116 other isoform, or with tags, fused parts or gaps G12D (already in the parent)): as above

CN(C)C[C@@]1(COc2nc(N3C[C@H]4CC[C@@](C)(C3)N4)c3cc(Cl)c(-c4c(F)cc(F)c5ccc(N)nc45)c(F)c3n2)CC1(F)F (single isomer, unassigned) [92b]
IC50 ([1]; IC50 (nM) (cRaf)): 9210 nM
IC50 [2]: 236 nM
IC50 [3]: 5320 nM

C#Cc1cccc2cc(O)cc(-c3c(F)cc4c(N5C[C@H]6CC[C@@](C)(C5)N6)nc(OCC5(CN6CC[C@@H](F)C6)CC5)nc4c3F)c12 (single isomer, unassigned) [103a]
IC50 ([1]; IC50 (nM) (cRaf)): 26.2 nM
IC50 [2]: 1.05 nM
IC50 [3]: 3.76 nM

Cc1c(Cl)cc2[nH]nc(C)c2c1-c1c(F)cc2c(N3C[C@H]4CC[C@@](C)(C3)N4)nc(OCC3(CN(C)C)CC3(F)F)nc2c1F (single isomer, unassigned) [Ex 68]
IC50 ([1]; IC50 (nM) (cRaf)): 3300 nM
IC50 [2]: 39.9 nM
IC50 ([3]; Homo sapiens, ASPC1, 2 h): 2380 nM

Cc1cc2[nH]ncc2c(-c2c(F)cc3c(N4C[C@H]5CC[C@@](C)(C4)N5)nc(OC[C@]4(CN(C)C)CC4(F)F)nc3c2F)c1C(F)(F)F (single isomer, unassigned) [Ex 76a]
IC50 ([1]; IC50 (nM) (cRaf)): 1810 nM
IC50 [2]: 12 nM
IC50 [3]: 593 nM

Cc1cc2[nH]ncc2c(-c2c(F)cc3c(N4C[C@H]5CC[C@@](C)(C4)N5)nc(OCC4(CN5CC[C@@H](F)C5)CC4)nc3c2F)c1C(F)(F)F (single isomer, unassigned) [Ex 80a]
IC50 ([1]; IC50 (nM) (cRaf)): 4050 nM
IC50 [2]: 31.8 nM
IC50 [3]: 737 nM

Cc1cc2[nH]ncc2c(C2Cc3nc(OC[C@]4(CN(C)C)CC4(F)F)nc(N4C[C@H]5CC[C@@](C)(C4)N5)c3C(=O)O2)c1C(F)(F)F (single isomer, unassigned) [Ex. 96b]
IC50 ([1]; IC50 (nM) (cRaf)): 637 nM
IC50 [2]: 3.31 nM
IC50 [3]: 657 nM

Cc1cc2[nH]ncc2c(C2Cc3nc(OCC4(CN5CC[C@@H](F)C5)CC4)nc(N4C[C@H]5CC[C@@](C)(C4)N5)c3C(=O)N2)c1C(F)(F)F (single isomer, unassigned) [Ex. 98a]
IC50 ([1]; read-out: IC50 (nM) (cRaf)): 34200 nM
IC50 [2]: 380 nM
IC50 [3]: 7270 nM

Oc1cc(-c2c(F)cc3c(N4CC5CC(O)C(C4)N5)nc(OCC4(CN5CCOCC5)CC4)nc3c2F)c2ccccc2c1 (single isomer, unassigned) [Example 16]
IC50 ([1]; IC50 (nM) (cRaf)): 871 nM
IC50 [2]: 30.2 nM
IC50 ([3]; Homo sapiens, ASPC1, 2 h): 5760 nM

Oc1cc(-c2c(F)cc3c(N4CC5CC(O)C(C4)N5)nc(OCC4(CN5CCOCC5)CC4)nc3c2F)c2ccccc2c1 (single isomer, unassigned) [Example 17]
IC50 ([1]; IC50 (nM) (cRaf)): 3260 nM
IC50 [2]: 52.1 nM
IC50 [3]: 7430 nM

CN(C)CC1(COc2nc(N3C[C@H]4C[C@@H](O)[C@@H](C3)N4)c3cc(Cl)c(-c4cc(O)cc5ccccc45)c(F)c3n2)CC1 (single isomer, unassigned) [Example 18a]
IC50 ([1]; IC50 (nM) (cRaf)): 293 nM
IC50 [2]: 8.97 nM
IC50 [3]: 20600 nM

CN(C)CC1(COc2nc(N3C[C@H]4C[C@@H](O)[C@@H](C3)N4)c3cc(Cl)c(-c4cc(O)cc5ccccc45)c(F)c3n2)CC1 (single isomer, unassigned) [Example 18b]
IC50 ([1]; IC50 (nM) (cRaf)): 2680 nM
IC50 [2]: 77.3 nM
IC50 [3]: 50800 nM

CN(C)CC1(COc2nc(N3CC4CC(O)C(C3)N4)c3cc(Cl)c(-c4cc(O)cc5ccccc45)c(F)c3n2)CC1 (single isomer, unassigned) [Example 22b, 3-(6-chloro-2-((1-((dimethylamino)meth-yl)cyclo-propyl)methoxy)-8-fluoro-7-(3-hydroxy-naphthalen-1-yl)quinazolin-4-yl)-3,8-diazabicyclo[3.2.1]oc-tan-6-ol]
IC50 ([1]; IC50 (nM) (cRaf)): 8450 nM
IC50 [2]: 78.9 nM
IC50 [3]: 38300 nM

CN(C)CC1(COc2nc(N3C[C@@]4(C)CC[C@H]3CN4)c3cc(Cl)c(-c4cc(O)cc5ccccc45)c(F)c3n2)CC1 (single isomer, unassigned) [Example 38a]
IC50 ([1]; IC50 (nM) (cRaf)): 617 nM
IC50 [2]: 45.2 nM
IC50 [3]: 1280 nM

CN(C)CC1(COc2nc(N3C[C@@H]4C[C@H](O)C(C)(C3)N4)c3cc(Cl)c(-c4cc(O)cc5ccccc45)c(F)c3n2)CC1 (stereo in doubt) [Example 41, 3-(6-chloro-2-((1-((dimethylamino)methyl)cyclopropyl)methoxy)-8-fluoro-7-(3-hydroxynaphthalen-1-yl)quinazolin-4-yl)-5-methyl-3,8-diazabicyclo[3.2.1]octan-6-ol]
IC50 ([1]; IC50 (nM) (cRaf)): 1270 nM
IC50 [2]: 20.3 nM
IC50 ([3]; Homo sapiens, ASPC1, 2 h): 2840 nM

CN(C)CC1(COc2nc(N3C[C@H]4NC(C)(C[C@H]4O)C3)c3cc(Cl)c(-c4cc(O)cc5ccccc45)c(F)c3n2)CC1 (stereo in doubt) [Example 42, 3-(6-chloro-2-((1-((dimethylamino)methyl)cyclopropyl)methoxy)-8-fluoro-7-(3-hydroxynaphthalen-1-yl)quinazolin-4-yl)-1-methyl-3,8-diazabicyclo [3.2.1]octan-6-ol]
IC50 ([1]; IC50 (nM) (cRaf)): 20400 nM
IC50 [2]: 17.5 nM
IC50 ([3]; Homo sapiens, ASPC1, 2 h): 8460 nM

CN(C)CC1(COc2nc(N3CC4C[C@@H](O)[C@@](C)(C3)N4)c3cc(Cl)c(-c4cc(O)cc5ccccc45)c(F)c3n2)CC1 (stereo in doubt) [Example 43, 3-(6-chloro-2-((1-((dimethylamino)methyl)cyclopropyl)methoxy)-8-fluoro-7-(3-hydroxynaphthalen-1-yl)quinazolin-4-yl)-5-methyl-3,8-diazabicyclo [3.2.1]octan-6-ol]
IC50 ([1]; IC50 (nM) (cRaf)): 2200 nM
IC50 [2]: 74.3 nM
IC50 ([3]; Homo sapiens, ASPC1, 2 h): 12600 nM

CN(C)C[C@@]1(COc2nc(N3C[C@H]4CC[C@@](C)(C3)N4)c3cc(F)c(-c4cc(O)cc5ccccc45)c(F)c3n2)CC1(F)F [Ex 69, 4-(2-(((R)-1-((dimethylamino)methyl)-2,2-difluorocyclopropyl)methoxy)-6,8-difluoro-4-((1S,5R)-1-methyl-3,8-diazabicyclo[3.2.1]octan-3-yl)quinazolin-7-yl)naphthalen-2-ol]
IC50 ([1]; IC50 (nM) (cRaf)): 194 nM
IC50 [2]: 1.76 nM
IC50 ([3]; Homo sapiens, ASPC1, 2 h): 275 nM

CN1C[C@H](F)C[C@H]1COc1nc(N2C[C@H]3CC[C@@](C)(C2)N3)c2cc(F)c(-c3cc(O)cc4ccccc34)c(F)c2n1 [Ex 70, 4-(6,8-difluoro-2-(((2S,4R)-4-fluoro-1-methylpyrrolidin-2-yl)methoxy)-4-((1S,5R)-1-methyl-3,8-diazabicyclo[3.2.1]octan-3-yl)quinazolin-7-yl)naphthalen-2-ol]
IC50 ([1]; IC50 (nM) (cRaf)): 5390 nM
IC50 [2]: 43.5 nM
IC50 ([3]; Homo sapiens, ASPC1, 2 h): 2330 nM

Cc1cc2[nH]ncc2c(-c2c(F)cc3c(N4CC5CCC(C4)N5)nc(OCC4(CN5CCOCC5)CC4)nc3c2F)c1C(F)(F)F [Ex 72, 4-((1-(((4-(3,8-diazabicyclo[3.2.1]octan-3-yl)-6,8-difluoro-7-(6-methyl-5-(trifluoromethyl)-1H-indazol-4-yl)quinazolin-2-yl)oxy)methyl)cyclopropyl)methyl)morpholine]
IC50 ([1]; IC50 (nM) (cRaf)): 7440 nM
IC50 [2]: 30.8 nM
IC50 ([3]; Homo sapiens, ASPC1, 2 h): 2500 nM

Cc1cc2[nH]nc(C)c2c(-c2c(F)cc3c(N4C[C@H]5CC[C@@](C)(C4)N5)nc(OC[C@]4(CN(C)C)CC4(F)F)nc3c2F)c1Cl [Ex 79, 1-((1R)-1-(((7-(5-chloro-3,6-dimethyl-1H-indazol-4-yl)-6,8-difluoro-4-((1S,5R)-1-methyl-3,8-diazabicyclo[3.2.1]octan-3-yl)quinazolin-2-yl)oxy)methyl)-2,2-difluorocyclopropyl)-N,N-dimethylmethanamine]
IC50 ([1]; IC50 (nM) (cRaf)): 4410 nM
IC50 [2]: 72.5 nM
IC50 ([3]; Homo sapiens, ASPC1, 2 h): 1930 nM

C[C@]12CC[C@H](CN(c3nc(OCC4(CN5CC[C@@H](F)C5)CC4)nc4c(F)c(-c5cc(O)cc6ccccc56)c(F)cc34)C1)N2 [Ex 81, 4-(6,8-difluoro-2-((1-(((R)-3-fluoropyrrolidin-1-yl)methyl)cyclopropyl)methoxy)-4-((1S,5R)-1-methyl-3,8-diazabicyclo[3.2.1]octan-3-yl)quinazolin-7-yl)naphthalen-2-ol]
IC50 ([1]; IC50 (nM) (cRaf)): 1980 nM
IC50 [2]: 16.5 nM
IC50 ([3]; Homo sapiens, ASPC1, 2 h): 467 nM

Cc1cc2[nH]ncc2c(-c2c(F)cc3c(N4C[C@H]5CC[C@@](C)(C4)N5)nc(OC[C@]4(CN(C)C)CC4(F)F)nc3c2F)c1C [Ex 82, 1-((1R)-1-(((7-(5,6-dimethyl-1H-indazol-4-yl)-6,8-difluoro-4-((1S,5R)-1-methyl-3,8-diazabicyclo[3.2.1]octan-3-yl)quinazolin-2-yl)oxy)methyl)-2,2-difluorocyclopropyl)-N,N-dimethylmethanamine]
IC50 ([1]; IC50 (nM) (cRaf)): 14800 nM
IC50 [2]: 89.3 nM
IC50 ([3]; Homo sapiens, ASPC1, 2 h): 2200 nM

Cc1c(Cl)cc2[nH]nc(C)c2c1-c1c(F)cc2c(N3C[C@H]4CC[C@@](C)(C3)N4)nc(OCC3(CN4CC[C@@H](F)C4)CC3)nc2c1F [Ex 84, 7-(6-chloro-3,5-dimethyl-1H-indazol-4-yl)-6,8-difluoro-2-((1-(((R)-3-fluoropyrrolidin-1-yl)methyl)cyclopropyl)methoxy)-4-((1S,5R)-1-methyl-3,8-diazabicyclo[3.2.1]octan-3-yl)quinazoline]
IC50 ([1]; IC50 (nM) (cRaf)): 9320 nM
IC50 [2]: 156 nM
IC50 ([3]; Homo sapiens, ASPC1, 2 h): 6160 nM

Cc1cc2[nH]nc(C)c2c(-c2c(F)cc3c(N4C[C@H]5CC[C@@](C)(C4)N5)nc(OCC4(CN5CC[C@@H](F)C5)CC4)nc3c2F)c1C [Ex 85, 6,8-difluoro-2-((1-(((R)-3-fluoropyrrolidin-1-yl)methyl)cyclopropyl)methoxy)-4-((1S,5R)-1-methyl-3,8-diazabicyclo [3.2.1]octan-3-yl)-7-(3,5,6-trimethyl-1H-indazol-4-yl)quinazoline]
IC50 ([1]; IC50 (nM) (cRaf)): 18900 nM
IC50 [2]: 255 nM
IC50 ([3]; Homo sapiens, ASPC1, 2 h): 5620 nM
